From patent USRE43280E1, “Hyperforin derivatives, the use thereof and formulations containing them” (Indena S.p.A., priority 2002, dated 2012)
Like-named read-outs stand apart in the source and are kept apart here.

Legend:
rat = assay: forced swimming test (struggling, floating, swimming); type: in vivo; conditions: 3 doses: 30 minutes after the pre-test, 5 hours and 30 minutes before the test
Procedure: The compounds were administered in 3 doses: 30 minutes after the pre-test, 5 hours and 30 minutes before the test.

[1] = system: APPs produced by α-secretase in neuroblastoma cell line (SH-SY5Y); assay: release of APPs produced by α-secretase into the culture medium of SH-SY5Y cells; type: cell-based
[2] = 10 μM, SH-SY5Y culture medium, controls = 100

octahydrohyperforin lithium salt
Floating (rat; 6.25 mg/Kg): 59.5 ± 11.3 s
Struggling (rat; 6.25 mg/Kg): 63.1 ± 5.8 s
Swimming (rat; 6.25 mg/Kg): 177.4 ± 14.9 s
APPs % [1, 2]: 1383%

CC(C)=CCC[C@]1(C)[C@@H](CC=C(C)C)C[C@@]2(CC=C(C)C)C(=O)[C@]1(C(=O)C(C)C)C(=O)C(CC=C(C)C)=C2O [Hyperforin]
Floating (rat; 6.25 mg/Kg): 60.4 ± 7.3 s
Struggling (rat; 6.25 mg/Kg): 30.4 ± 4.6 s
Swimming (rat; 6.25 mg/Kg): 99.3 ± 10.6 s
APPs % [1]: 296%

CNCCCN1c2ccccc2CCc2ccccc21 [Desipramin, reference compound]
Floating (rat; 10 mg/Kg): 53.0 ± 9.2 s
Struggling (rat; 10 mg/Kg): 148.3 ± 12.6 s
Swimming (rat; 10 mg/Kg): 98.8 ± 7.9 s

CC(=O)OC1=C(CCC(C)C)C(=O)[C@@]2(CCC(C)C)C[C@H](CCC(C)C)[C@@](C)(CCCC(C)C)[C@]1(C(=O)C(C)C)C2=O [Acetyloctahydrohyperforin, acetyloctahydrohyperforin]
Floating (rat; 6.25 mg/Kg): 68.4 ± 5.7 s
Struggling (rat; 6.25 mg/Kg): 73.9 ± 5.9 s
Swimming (rat; 6.25 mg/Kg): 171.9 ± 11.4 s
APPs % [1, 2]: 954%

dodecahydrohyperforin
Floating (rat; 6.25 mg/Kg): 55.1 ± 6.2 s
Struggling (rat; 6.25 mg/Kg): 62.13 ± 5.1 s
Swimming (rat; 6.25 mg/Kg): 169.5 ± 10.1 s
APPs % [1, 2]: 879%

tetrahydrohyperforin
Floating (rat; 6.25 mg/Kg): 68.4 ± 7.6 s
Struggling (rat; 6.25 mg/Kg): 51.4 ± 4.1 s
Swimming (rat; 6.25 mg/Kg): 193.4 ± 13.2 s
APPs % [1, 2]: 926%
